The results in this text go back to patent US12502338B2, “Dental glass ionomer cement” (GC Corporation, priority 2020, dated 2025).

This data set in a line: Water solubility / water insolubility by visual observation. As to conditions: 0.4 g sample in 4 g distilled water, 20° C., 30 minutes. Format: physicochemical. The protocol: As used herein and in the claims, a water-soluble compound means a compound having a solubility in water of 10 g/100 g H2O or more at 20° C.
4 g of distilled water and 0.4 g of a sample were sufficiently stirred at 20° C., allowed to stand for 30 minutes, and then visually observed. When white turbidity and biphasic separation were not observed, it was judged to be water soluble. When white turbidity or biphasic separation was observed, it was judged to be water insoluble.
Turning to `C=CC(=O)NCCO` [HEAA, hydroxyethyl acrylamide], the “water solubility / water insolubility” value is listed as “WATER-SOLUBLE”.
With `C=C(C)C(=O)OCCO` [HEMA, hydroxyethyl methacrylate] the entry was “WATER-SOLUBLE”; with `C=C(C)C(=O)OCCOCCOCCOC(=O)C(=C)C` [TEGDMA, triethylene glycol dimethacrylate], “WATER-SOLUBLE”.
Take `C=C(C)C(=O)OCCOC(=O)NCCC(C)CC(C)(C)CNC(=O)OCCOC(=O)C(=C)C` (centres unmarked) [UDMA, di-2-methacryloxyethyl-2,2,4-triethylhexamethylene dicarbamate]: the “water solubility / water insolubility” value is given as “WATER-SOLUBLE”.
Turning to “isocyanuric acid EO-modified trimethacrylate [UA-7100]”, the “water solubility / water insolubility” value was “WATER-SOLUBLE”.
